Reference: US20130180014A1, “Pyridine Compounds for Controlling Invertebrate Pests III” (BASF SE, priority 2010, published 2013)

Tests used:
Format in all cases: in vivo
Megoura viciae = assay: Vetch aphid, bean leaf disk in microtiterplate; settings: foliar, 144 h, test solution 2500 mg/L, leaf disks sprayed with 2.5 μl, 6 days
Experimental: The active compounds were formulated in 1:3 (vol/vol) DMSO:water with different concentrations of formulated compounds.
Bean leaf disks were placed into microtiterplates filled with 0.8% agar-agar and 2.5 ppm OPUS™. The leaf disks were sprayed with 2.5 μl of the test solution and 5 to 8 adult aphids were placed into the microtiterplates which were then closed and kept at 23±1° C. and 50±5% relative humidity under fluorescent light for 6 days. Mortality was assessed on the basis of vital, reproduced aphids. Aphid mortality and fecundity was then visually assessed.

Aphis craccivora = assay: Cowpea aphid, spray on potted cowpea plants; settings: cowpea plants sprayed, assessed after 24, 72 and 120 hours, in comparison with untreated controls
Experimental: The active compounds were formulated in 50:50 (vol/vol) acetone:water. The test solution was prepared at the day of use.
Potted cowpea plants colonized with 100-150 aphids of various stages were sprayed after the pest population had been recorded. Population reduction was assesed after 24, 72, and 120 hours.

Myzus persicae [1] = assay: Green peach aphid, systemic, artificial diet under membrane in 96-well plate; settings: 72 h, 3 days, in comparison with untreated controls
Excerpt: For evaluating control of green peach aphid (Myzus persicae) through systemic means the test unit consisted of 96-well-microtiter plates containing liquid artificial diet under an artificial membrane.
The compounds were formulated using a solution containing 75% vol/vol water and 25% vol/vol DMSO. Different concentrations of formulated compounds were pipetted into the aphid diet, using a custom built pipetter, at two replications. After application, 5 to 8 adult aphids were placed on the artificial membrane inside the microtiter plate wells. The aphids were then allowed to suck on the treated aphid diet and incubated at about 23+1° C. and about 50+5% relative humidity for 3 days. Aphid mortality and fecundity was then visually assessed.

Myzus persicae [2] = assay: Green peach aphid, mixed life stages, method a) pepper leaf dip; settings: foliar, 120 h, pepper leaves dipped, after 5 days, in comparison with untreated controls
Excerpt: (§1) The active compounds were formulated in 50:50 (vol/vol) acetone:water and 100 ppm Kinetica™ surfactant.
Pepper plants in the 2nd leaf-pair stage (variety ‘California Wonder’) were infested with approximately 40 laboratory-reared aphids by placing infested leaf sections on top of the test plants. The leaf sections were removed after 24 hr. The leaves of the intact plants were dipped into gradient solutions of the test compound and allowed to dry. Test plants were maintained under fluorescent light (24 hour photoperiod) at about 25° C. and 20-40% relative humidity. Aphid mortality on the treated plants, relative to mortality on check plants, was determined after 5 days.

Aphis gossypii = assay: Cotton aphid, mixed life stages, method a) cotyledon dip; settings: cotton cotyledons dipped, in comparison with untreated controls
Excerpt: as §1
Cotton plants at the cotyledon stage (one plant per pot) were infested by placing a heavily infested leaf from the main colony on top of each cotyledon. The aphids were allowed to transfer to the host plant overnight, and the leaf used to transfer the aphids was removed. The cotyledons were dipped in the test solution and allowed to dry. After days, mortality counts were made.

O=C(Nc1cccnc1)c1cncc(C(F)(F)F)c1 [Example 18, N-Pyridin-3-yl-5-trifluoromethylnicotinamide]
mortality at 2500 µg/mL (Megoura viciae): ≥ 90%
mortality at 300 ppm (Aphis craccivora): ≥ 90%
mortality at 2500 ppm (Myzus persicae [1]): 100%
mortality at 300 ppm (Myzus persicae [2]): ≥ 90%
mortality at 300 ppm (Aphis gossypii): ≥ 75%
